Results: ChEMBL document CHEMBL5653615 (J Biol Chem, 2013)

Columns and labels:
[1] = target: Misshapen-like kinase 1 (Homo sapiens) (UniProt Q8N4C8); experiment: Inhibition of human MINK1 at 500 nM by HotSpot assay relative to control
[2] = target: T1, Serine/threonine-protein kinase D2 (Homo sapiens) (UniProt Q9BZL6); experiment: Inhibition of human PRKD2 at 500 nM by HotSpot assay relative to control
T1 sequence (whole entry): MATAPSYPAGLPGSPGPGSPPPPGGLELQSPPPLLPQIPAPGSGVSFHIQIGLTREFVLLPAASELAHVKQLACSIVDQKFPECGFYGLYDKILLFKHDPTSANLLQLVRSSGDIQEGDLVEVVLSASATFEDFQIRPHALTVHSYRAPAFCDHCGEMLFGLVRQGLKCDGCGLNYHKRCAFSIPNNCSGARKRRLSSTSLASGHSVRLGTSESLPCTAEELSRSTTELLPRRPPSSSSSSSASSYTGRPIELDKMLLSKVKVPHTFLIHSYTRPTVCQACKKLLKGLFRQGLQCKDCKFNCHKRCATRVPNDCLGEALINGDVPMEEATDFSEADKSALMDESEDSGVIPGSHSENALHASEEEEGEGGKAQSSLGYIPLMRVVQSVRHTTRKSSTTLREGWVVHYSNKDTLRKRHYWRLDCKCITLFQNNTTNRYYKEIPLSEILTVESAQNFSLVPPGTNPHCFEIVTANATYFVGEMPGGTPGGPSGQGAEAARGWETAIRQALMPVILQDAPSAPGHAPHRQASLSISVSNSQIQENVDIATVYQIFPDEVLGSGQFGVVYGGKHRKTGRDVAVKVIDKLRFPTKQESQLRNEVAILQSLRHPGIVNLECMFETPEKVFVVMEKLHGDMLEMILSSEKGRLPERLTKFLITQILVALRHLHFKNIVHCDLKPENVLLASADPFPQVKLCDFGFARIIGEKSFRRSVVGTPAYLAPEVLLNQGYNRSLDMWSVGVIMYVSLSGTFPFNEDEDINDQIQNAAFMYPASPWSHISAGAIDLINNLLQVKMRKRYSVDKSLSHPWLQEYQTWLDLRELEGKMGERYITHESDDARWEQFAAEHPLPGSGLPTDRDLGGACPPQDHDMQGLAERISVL

[3] = target: Casein kinase I isoform alpha (Homo sapiens) (UniProt P48729); experiment: Inhibition of human CK1a1 at 500 nM by HotSpot assay relative to control
Sequence of Casein kinase I isoform alpha (Homo sapiens) (P48729 2-337 limits assumed): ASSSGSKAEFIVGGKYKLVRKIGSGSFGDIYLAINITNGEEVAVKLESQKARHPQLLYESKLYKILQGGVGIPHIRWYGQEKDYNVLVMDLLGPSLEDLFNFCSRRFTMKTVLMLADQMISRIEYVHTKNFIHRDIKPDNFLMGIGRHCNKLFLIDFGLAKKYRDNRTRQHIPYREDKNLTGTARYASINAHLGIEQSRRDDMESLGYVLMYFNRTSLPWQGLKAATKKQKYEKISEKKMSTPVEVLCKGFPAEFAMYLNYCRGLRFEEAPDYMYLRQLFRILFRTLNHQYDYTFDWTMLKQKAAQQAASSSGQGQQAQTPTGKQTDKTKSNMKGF

[4] = target: T2, TGF-beta receptor type-1 (Homo sapiens) (UniProt P36897); experiment: Inhibition of human ALK5 at 500 nM by HotSpot assay relative to control
T2 sequence (whole entry): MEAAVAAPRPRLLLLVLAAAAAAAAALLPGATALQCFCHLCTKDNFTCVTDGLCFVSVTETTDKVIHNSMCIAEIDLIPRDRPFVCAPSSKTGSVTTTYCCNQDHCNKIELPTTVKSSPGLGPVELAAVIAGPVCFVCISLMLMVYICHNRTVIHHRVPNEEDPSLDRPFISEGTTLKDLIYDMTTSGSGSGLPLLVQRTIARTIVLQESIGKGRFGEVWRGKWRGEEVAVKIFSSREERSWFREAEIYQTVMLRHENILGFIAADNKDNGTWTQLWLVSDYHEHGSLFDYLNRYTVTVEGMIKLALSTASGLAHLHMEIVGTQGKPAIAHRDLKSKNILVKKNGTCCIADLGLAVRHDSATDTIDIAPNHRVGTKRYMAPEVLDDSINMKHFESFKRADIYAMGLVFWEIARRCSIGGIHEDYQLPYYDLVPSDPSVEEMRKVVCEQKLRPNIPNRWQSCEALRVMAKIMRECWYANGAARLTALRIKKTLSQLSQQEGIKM

[5] = target: Receptor tyrosine-protein kinase erbB-2 (Homo sapiens) (UniProt P04626); experiment: Inhibition of human ERBB2 at 500 nM by HotSpot assay relative to control
Sequence of Receptor tyrosine-protein kinase erbB-2 (Homo sapiens) (P04626 whole entry): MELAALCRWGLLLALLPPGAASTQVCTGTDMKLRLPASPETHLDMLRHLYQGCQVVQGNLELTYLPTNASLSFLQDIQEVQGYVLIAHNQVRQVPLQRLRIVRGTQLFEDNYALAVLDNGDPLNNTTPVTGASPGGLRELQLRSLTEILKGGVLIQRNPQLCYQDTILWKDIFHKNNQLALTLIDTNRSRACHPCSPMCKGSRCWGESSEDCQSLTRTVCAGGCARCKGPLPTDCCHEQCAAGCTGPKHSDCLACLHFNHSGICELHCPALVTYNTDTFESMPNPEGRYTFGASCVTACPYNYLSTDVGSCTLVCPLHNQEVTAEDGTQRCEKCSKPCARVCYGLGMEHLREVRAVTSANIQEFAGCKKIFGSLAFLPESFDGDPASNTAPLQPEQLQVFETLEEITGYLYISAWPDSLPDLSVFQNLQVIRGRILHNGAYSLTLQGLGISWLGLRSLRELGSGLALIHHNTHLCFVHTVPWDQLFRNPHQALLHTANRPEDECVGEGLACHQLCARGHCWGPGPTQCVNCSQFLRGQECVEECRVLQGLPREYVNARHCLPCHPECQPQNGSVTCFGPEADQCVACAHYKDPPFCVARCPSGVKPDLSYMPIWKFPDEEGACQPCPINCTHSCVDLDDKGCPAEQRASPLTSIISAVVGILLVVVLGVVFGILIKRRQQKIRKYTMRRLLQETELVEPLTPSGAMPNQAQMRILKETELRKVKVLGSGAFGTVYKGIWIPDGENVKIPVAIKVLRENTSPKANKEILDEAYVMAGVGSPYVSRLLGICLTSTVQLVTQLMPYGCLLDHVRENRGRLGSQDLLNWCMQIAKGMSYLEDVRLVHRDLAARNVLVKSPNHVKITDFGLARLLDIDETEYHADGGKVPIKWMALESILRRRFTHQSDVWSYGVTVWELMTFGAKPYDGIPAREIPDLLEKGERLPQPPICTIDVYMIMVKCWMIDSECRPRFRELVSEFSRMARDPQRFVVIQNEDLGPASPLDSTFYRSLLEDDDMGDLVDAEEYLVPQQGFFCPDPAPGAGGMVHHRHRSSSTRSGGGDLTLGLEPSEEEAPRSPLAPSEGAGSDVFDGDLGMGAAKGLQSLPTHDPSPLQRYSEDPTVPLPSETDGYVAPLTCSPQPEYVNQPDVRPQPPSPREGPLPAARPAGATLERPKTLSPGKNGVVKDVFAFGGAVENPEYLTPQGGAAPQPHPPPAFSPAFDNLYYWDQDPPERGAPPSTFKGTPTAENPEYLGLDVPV

[6] = target: G protein-coupled receptor kinase 4 (Homo sapiens) (UniProt P32298); experiment: Inhibition of human GRK4 at 500 nM by HotSpot assay relative to control
Sequence of G protein-coupled receptor kinase 4 (Homo sapiens) (P32298 whole entry, looked up): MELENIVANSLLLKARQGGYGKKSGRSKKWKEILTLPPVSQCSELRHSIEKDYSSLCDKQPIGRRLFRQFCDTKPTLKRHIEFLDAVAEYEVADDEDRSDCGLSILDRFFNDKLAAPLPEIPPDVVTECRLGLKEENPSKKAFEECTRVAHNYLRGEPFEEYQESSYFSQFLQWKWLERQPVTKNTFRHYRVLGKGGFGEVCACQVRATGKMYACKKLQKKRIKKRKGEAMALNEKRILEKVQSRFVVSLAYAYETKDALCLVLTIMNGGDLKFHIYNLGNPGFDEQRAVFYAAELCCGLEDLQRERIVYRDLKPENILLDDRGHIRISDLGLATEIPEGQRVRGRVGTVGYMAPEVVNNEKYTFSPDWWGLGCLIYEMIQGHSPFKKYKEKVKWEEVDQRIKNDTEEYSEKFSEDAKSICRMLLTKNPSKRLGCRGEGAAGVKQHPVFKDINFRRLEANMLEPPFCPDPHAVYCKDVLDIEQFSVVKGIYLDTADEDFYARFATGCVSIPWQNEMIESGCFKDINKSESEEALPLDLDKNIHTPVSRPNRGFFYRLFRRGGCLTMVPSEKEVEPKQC

[7] = target: Glycogen synthase kinase-3 beta (Homo sapiens) (UniProt P49841); experiment: Inhibition of human GSK3b at 500 nM by HotSpot assay relative to control
Sequence of Glycogen synthase kinase-3 beta (Homo sapiens) (P49841 whole entry, looked up): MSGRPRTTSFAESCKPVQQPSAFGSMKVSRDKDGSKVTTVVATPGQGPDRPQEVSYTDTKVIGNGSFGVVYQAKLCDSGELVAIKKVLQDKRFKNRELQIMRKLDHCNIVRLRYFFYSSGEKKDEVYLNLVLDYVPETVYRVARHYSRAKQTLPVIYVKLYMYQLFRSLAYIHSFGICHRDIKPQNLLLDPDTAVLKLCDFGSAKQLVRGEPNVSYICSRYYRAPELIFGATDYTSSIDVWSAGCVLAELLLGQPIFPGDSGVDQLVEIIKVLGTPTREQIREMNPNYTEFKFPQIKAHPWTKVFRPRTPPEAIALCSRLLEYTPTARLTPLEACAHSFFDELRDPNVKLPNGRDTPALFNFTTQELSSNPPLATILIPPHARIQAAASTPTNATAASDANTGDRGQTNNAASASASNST

[8] = target: CDK9/cyclin T1 (Homo sapiens) (UniProt O60563+P50750); experiment: Inhibition of human CDK9/cyclin T1 at 500 nM by HotSpot assay relative to control; format: protein-complex assay
[9] = target: T3, G protein-coupled receptor kinase 3 (Homo sapiens) (UniProt P35626); experiment: Inhibition of human GRK3 at 500 nM by HotSpot assay relative to control
T3 sequence (whole entry): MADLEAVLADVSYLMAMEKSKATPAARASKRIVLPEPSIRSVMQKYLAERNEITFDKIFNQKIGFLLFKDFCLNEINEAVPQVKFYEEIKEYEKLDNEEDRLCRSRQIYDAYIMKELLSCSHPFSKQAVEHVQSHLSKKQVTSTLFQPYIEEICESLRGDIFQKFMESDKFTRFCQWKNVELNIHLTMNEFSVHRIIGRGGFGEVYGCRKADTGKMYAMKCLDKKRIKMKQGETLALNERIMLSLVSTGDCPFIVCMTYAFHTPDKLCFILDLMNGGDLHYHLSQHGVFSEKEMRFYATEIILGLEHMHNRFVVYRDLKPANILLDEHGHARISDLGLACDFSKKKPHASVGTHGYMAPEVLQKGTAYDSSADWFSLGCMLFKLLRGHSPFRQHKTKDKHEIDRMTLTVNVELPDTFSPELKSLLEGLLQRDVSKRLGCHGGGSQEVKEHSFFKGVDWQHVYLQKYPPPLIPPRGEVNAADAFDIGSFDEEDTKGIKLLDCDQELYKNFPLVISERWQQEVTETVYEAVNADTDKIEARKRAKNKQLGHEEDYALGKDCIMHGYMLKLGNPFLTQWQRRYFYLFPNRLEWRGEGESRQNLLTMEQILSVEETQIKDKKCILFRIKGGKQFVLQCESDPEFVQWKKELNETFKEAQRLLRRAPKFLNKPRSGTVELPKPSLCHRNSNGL

Sequence of Misshapen-like kinase 1 (Homo sapiens) (Q8N4C8 whole entry, looked up): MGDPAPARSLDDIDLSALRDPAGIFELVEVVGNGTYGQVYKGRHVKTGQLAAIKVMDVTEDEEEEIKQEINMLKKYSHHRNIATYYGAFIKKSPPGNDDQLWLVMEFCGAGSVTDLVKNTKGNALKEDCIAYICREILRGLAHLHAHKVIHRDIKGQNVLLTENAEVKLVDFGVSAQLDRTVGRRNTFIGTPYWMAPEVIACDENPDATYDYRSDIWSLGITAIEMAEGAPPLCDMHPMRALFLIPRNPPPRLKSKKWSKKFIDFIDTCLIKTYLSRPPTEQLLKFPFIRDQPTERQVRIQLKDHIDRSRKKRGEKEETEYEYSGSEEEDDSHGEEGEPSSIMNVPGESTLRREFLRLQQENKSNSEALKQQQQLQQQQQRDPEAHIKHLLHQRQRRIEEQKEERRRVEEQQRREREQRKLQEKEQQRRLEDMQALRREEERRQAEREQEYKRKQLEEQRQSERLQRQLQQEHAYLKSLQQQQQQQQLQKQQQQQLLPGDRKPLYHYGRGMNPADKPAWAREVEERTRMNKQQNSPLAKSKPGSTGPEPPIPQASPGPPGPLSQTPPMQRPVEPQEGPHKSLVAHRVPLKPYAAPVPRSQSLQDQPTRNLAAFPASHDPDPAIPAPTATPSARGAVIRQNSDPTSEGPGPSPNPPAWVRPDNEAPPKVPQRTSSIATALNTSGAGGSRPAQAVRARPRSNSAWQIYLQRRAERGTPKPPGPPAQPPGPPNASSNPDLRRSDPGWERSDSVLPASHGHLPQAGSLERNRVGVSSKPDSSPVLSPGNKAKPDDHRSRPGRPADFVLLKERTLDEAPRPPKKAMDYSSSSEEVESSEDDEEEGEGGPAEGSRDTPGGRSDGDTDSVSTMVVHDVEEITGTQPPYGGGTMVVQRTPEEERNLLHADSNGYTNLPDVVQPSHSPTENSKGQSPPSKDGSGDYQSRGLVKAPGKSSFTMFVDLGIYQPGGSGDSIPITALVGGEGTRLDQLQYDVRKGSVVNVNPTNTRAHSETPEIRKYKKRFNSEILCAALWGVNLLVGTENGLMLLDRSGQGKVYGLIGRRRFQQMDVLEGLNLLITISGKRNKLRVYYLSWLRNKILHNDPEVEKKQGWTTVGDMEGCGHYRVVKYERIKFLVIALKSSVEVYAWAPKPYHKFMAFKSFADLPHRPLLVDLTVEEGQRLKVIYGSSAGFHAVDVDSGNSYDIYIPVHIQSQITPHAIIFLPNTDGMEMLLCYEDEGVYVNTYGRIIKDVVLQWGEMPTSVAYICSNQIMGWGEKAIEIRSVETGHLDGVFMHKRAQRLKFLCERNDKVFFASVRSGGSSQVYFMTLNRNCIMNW

| SMILES | inhibition [1] [%] | inhibition [2] [%] | inhibition [3] [%] | inhibition [4] [%] | inhibition [5] [%] | inhibition [6] [%] | inhibition [7] [%] | inhibition [8] [%] | inhibition [9] [%] |
| --- | --- | --- | --- | --- | --- | --- | --- | --- | --- |
| Oc1n[nH]c2nnc(-c3c(-c4ccccc4)nn4ccccc34)cc12 | 2.28 | 2.86 | -6.61 | 4.23 | -4.85 | -1.17 | -9.9 | 3.66 | -1.47 |
| Nc1n[nH]c2nnc(-c3c(-c4ccccc4)nn4ccccc34)cc12 | 27.1 | 45.9 | -0.27 | 3.87 | -4.95 | -2.71 | -9.06 | 2.74 | -0.84 |
